The values below come from ChEMBL document CHEMBL5360618, “PepScaf: Harnessing Machine Learning with In Vitro Selection toward De Novo Macrocyclic Peptides against IL-17C/IL-17RE Interaction” (J Med Chem, 2023).

The term IC50 denotes the point on the concentration scale where inhibition reaches its midpoint. Lower therefore signals greater potency in that assay.

Each structure is given as a SMILES string. Positions of bridges follow the written chain, without caps; N, C: chain ends. Residues, ends and D or L forms follow the SMILES beside them.

This assay concerns the target T1, IL17-RE-IL-17C (Homo sapiens, UniProt Q8NFR9+Q9P0M4).
T1 sequence (Q9P0M4 whole entry): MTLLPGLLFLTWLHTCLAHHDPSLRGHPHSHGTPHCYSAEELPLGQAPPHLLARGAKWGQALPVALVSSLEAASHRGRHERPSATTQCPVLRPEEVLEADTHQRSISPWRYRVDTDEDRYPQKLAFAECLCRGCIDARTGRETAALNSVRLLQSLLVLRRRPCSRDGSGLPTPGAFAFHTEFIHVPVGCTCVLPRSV
T1 sequence (Q8NFR9 whole entry): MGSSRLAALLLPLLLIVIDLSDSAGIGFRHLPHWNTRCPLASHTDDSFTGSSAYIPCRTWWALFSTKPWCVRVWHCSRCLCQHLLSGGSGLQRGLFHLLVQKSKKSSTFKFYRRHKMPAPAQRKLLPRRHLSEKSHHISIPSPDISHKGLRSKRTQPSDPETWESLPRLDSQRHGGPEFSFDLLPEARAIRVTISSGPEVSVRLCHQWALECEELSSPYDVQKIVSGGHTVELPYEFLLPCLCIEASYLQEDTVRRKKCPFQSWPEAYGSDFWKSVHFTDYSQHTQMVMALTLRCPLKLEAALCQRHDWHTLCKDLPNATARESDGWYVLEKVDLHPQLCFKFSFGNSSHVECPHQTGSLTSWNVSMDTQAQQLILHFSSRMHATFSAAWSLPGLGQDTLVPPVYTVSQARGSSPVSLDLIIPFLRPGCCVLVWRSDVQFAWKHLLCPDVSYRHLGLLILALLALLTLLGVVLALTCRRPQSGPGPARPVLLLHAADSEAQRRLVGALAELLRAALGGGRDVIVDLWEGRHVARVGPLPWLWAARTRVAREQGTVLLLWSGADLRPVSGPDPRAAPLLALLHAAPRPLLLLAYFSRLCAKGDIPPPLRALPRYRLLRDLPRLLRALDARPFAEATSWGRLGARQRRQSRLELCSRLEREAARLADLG
The experiment in a line: Inhibition of IL-17C/IL-17RE interaction (unknown origin) incubated for 1.5 hrs by ELISA method. The class given is protein-complex assay. In general terms: In an ELISA, binding on a coated surface is turned into a signal by an enzyme label.
Turning to `CC(C)C[C@@H]1NC(=O)[C@H](CC(C)C)NC(=O)[C@H](CO)NC(=O)[C@H](CCC(=O)O)NC(=O)[C@H](CC(C)C)NC(=O)[C@H](Cc2ccc(O)cc2)NC(=O)CSC[C@@H](C(=O)NCC(N)=O)NC(=O)[C@H](Cc2ccc(O)cc2)NC(=O)[C@H](Cc2ccc(O)cc2)NC(=O)[C@H](CC(N)=O)NC(=O)[C@H](CC(N)=O)NC(=O)[C@H](CO)NC(=O)CNC1=O` ({CH2CO}-YLESLLGSNNYYCG-NH2; thioether N-13), the half-maximal inhibitory concentration (IC50) is > 30 µM.

With `CC(C)C[C@@H]1NC(=O)[C@H](CC(C)C)NC(=O)[C@H](CCCCN)NC(=O)[C@H](CO)NC(=O)[C@H](CC(C)C)NC(=O)[C@H](Cc2c[nH]c3ccccc23)NC(=O)[C@H](CC(N)=O)NC(=O)[C@H](CC(=O)O)NC(=O)[C@H](Cc2ccccc2)NC(=O)[C@H](Cc2c[nH]cn2)NC(=O)[C@H](Cc2ccc(O)cc2)NC(=O)CSC[C@@H](C(=O)NCC(N)=O)NC(=O)[C@H](CC(=O)O)NC1=O` ({CH2CO}-YHFDNWLSKLLDCG-NH2; thioether N-13), the half-inhibitory concentration (IC50) is > 30 µM.

Turning to `CC[C@H](C)[C@@H]1NC(=O)[C@H](CCCNC(=N)N)NC(=O)[C@H](Cc2ccc(O)cc2)NC(=O)[C@H](Cc2ccc(O)cc2)NC(=O)[C@H](Cc2c[nH]cn2)NC(=O)[C@H](Cc2c[nH]cn2)NC(=O)[C@H](Cc2ccc(O)cc2)NC(=O)CSC[C@@H](C(=O)NCC(N)=O)NC(=O)CNC(=O)[C@H](CC(C)C)NC(=O)[C@H](CCC(=O)O)NC(=O)CNC(=O)[C@H](C)NC(=O)[C@H](CC(C)C)NC1=O` ({CH2CO}-YHHYYRILAGELGCG-NH2; thioether N-14), the concentration for half-maximal inhibition (IC50) is > 30 µM.

In turn, `CC(C)C[C@@H]1NC(=O)[C@H](CO)NC(=O)CNC(=O)[C@H](Cc2ccc(O)cc2)NC(=O)[C@H](CC(C)C)NC(=O)[C@H](CO)NC(=O)[C@H](C(C)C)NC(=O)[C@H](Cc2ccc(O)cc2)NC(=O)[C@H](Cc2ccc(O)cc2)NC(=O)[C@H](CCC(N)=O)NC(=O)[C@H](Cc2c[nH]cn2)NC(=O)[C@H](Cc2ccc(O)cc2)NC(=O)CSC[C@@H](C(=O)NCC(N)=O)NC(=O)CNC1=O` ({CH2CO}-YHQYYVSLYGSLGCG-NH2; thioether N-14) registered a concentration for half-maximal inhibition (IC50) of 0.0081 µM.

As for `CC(C)C[C@@H]1NC(=O)[C@H](Cc2c[nH]c3ccccc23)NC(=O)[C@H](C)NC(=O)[C@H](CC(=O)O)NC(=O)[C@H](Cc2ccccc2)NC(=O)[C@H](Cc2c[nH]cn2)NC(=O)[C@H](Cc2ccc(O)cc2)NC(=O)CSC[C@@H](C(=O)NCC(=O)O)NC(=O)[C@H](CC(C)C)NC(=O)[C@H](Cc2ccc(O)cc2)NC(=O)[C@H](CC(=O)O)NC(=O)[C@H](CCCCN)NC1=O` ({CH2CO}-YHFDAWLKDYLCG-OH; thioether N-12), the IC50 is > 30 µM.

Turning to `CC[C@H](C)[C@@H]1NC(=O)[C@H](CO)NC(=O)[C@H](Cc2ccc(O)cc2)NC(=O)[C@H]([C@@H](C)CC)NC(=O)[C@H]([C@@H](C)O)NC(=O)[C@H](CC(C)C)NC(=O)[C@H](CC(=O)O)NC(=O)[C@H]([C@@H](C)CC)NC(=O)[C@H](C(C)C)NC(=O)[C@H](Cc2ccc(O)cc2)NC(=O)[C@H](CC(=O)O)NC(=O)[C@H](CCCCN)NC(=O)[C@H](Cc2ccc(O)cc2)NC(=O)CSC[C@@H](C(=O)NCC(N)=O)NC1=O` ({CH2CO}-YKDYVIDLTIYSICG-NH2; thioether N-14), the half-inhibitory concentration (IC50) is > 30 µM.

Consider `CC[C@H](C)[C@@H]1NC(=O)[C@H](CCCNC(=N)N)NC(=O)[C@H](Cc2ccc(O)cc2)NC(=O)[C@H](Cc2ccc(O)cc2)NC(=O)[C@H](Cc2cnc[nH]2)NC(=O)[C@H](Cc2cnc[nH]2)NC(=O)[C@H](Cc2ccc(O)cc2)NC(=O)CSC[C@@H](C(=O)NCC(N)=O)NC(=O)CNC(=O)[C@@H]2CCCN2C(=O)[C@H](CCC(=O)O)NC(=O)CNC(=O)[C@H](Cc2ccc(O)cc2)NC(=O)[C@H](CC(C)C)NC1=O` ({CH2CO}-YHHYYRILYGEPGCG-NH2; thioether N-14), for which the IC50 was > 30 µM.
